Experimental data reported in patent US20240262811A1, “BENZIMIDAZOYL GLP-1 RECEPTOR AGONISTS, PHARMACEUTICAL COMPOSITIONS COMPRISING THE SAME, AND METHODS FOR THEIR USE” (Carmot Therapeutics, Inc., priority 2021, published 2024).

Biological target: T1, human GLP-1 receptor (Homo sapiens, UniProt P43220)
T1 construct: expressed in transfected cells
Assay: GLP-1R cAMP Assay (HitHunter cAMP accumulation in CHO cells stably overexpressing the human GLP-1 receptor)
Type: cell-based
Conditions: CHO cells overexpressing human GLP-1 receptor, 30 min treatment, 20-point dose response in triplicate
Method: cAMP accumulation was measured in Chinese hamster ovary (CHO) cells stably overexpressing the human GLP-1 receptor using the HitHunter cAMP Assay for Small Molecules Kit (Eurofins). Briefly, cells were grown in Ham's F12 Nutrient Mix with 10% FBS, and lifted with Cell Dissociation Buffer, Enzyme free, PBS based (ThermoFisher). Cells were pelleted, and resuspended in Hank's buffered saline solution with 10 mM HEPES, and 625 μM 3-isobutyl-1-methylxanthine. The anti-cAMP antibody reagent was then added to cells at a 1:2 ratio and 5 μL of mixture was seeded in 384-well small volume white assay plates, at 10,000 cells/well. Cells were then treated with 50 nL compound using an ECHO 550 acoustic dispenser (Labcyte) in a 20-point dose response format in triplicate for 30 min. Cells were then lysed, and detection reagents added according to the manufacturer's protocol. After overnight incubation, luminescence was measured using a Perkin Elmer Envision plate reader. Dose response curves were analyzed using GraphPad Prism 9.0.
Molecular weights are calculated by standard techniques, and mass spectrometry results are reported according to the Examples above.

T1 sequence (P43220 24-463): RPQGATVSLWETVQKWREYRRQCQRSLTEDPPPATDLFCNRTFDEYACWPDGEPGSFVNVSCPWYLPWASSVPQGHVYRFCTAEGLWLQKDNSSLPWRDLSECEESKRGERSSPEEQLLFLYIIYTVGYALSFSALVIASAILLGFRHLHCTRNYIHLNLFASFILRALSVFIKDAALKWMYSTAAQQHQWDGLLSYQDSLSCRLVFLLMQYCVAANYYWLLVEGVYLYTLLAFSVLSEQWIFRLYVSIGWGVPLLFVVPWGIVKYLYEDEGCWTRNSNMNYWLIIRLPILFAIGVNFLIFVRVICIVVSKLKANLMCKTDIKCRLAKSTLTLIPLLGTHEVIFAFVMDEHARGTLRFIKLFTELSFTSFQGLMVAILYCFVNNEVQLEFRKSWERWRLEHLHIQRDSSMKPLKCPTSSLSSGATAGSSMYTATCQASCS

- EC50: < 50 nM
SMILES: O=C(O)c1ccc2nc(CN3CC[C@H](Oc4ccnc(COc5ccc(Cl)cc5F)c4)C3)n(C[C@@H]3CCO3)c2c1 [Compound 289, 2-{[(3S)-3-({2-[(4-chloro-2-fluorophenoxy)methyl]pyridin-4-yl}oxy)pyrrolidin-1-yl]methyl}-1-{[(2S)-oxetan-2-yl]methyl}-1H-1,3-benzodiazole-6-carboxylic acid]
